Assay results as given in patent publication US7060822B1, “2-pyrazolin-5-ones” (Abbott GmbH & Co. KG, priority 1999, dated 2006).

Row | melting point | SMILES
1 | 295 to 297 °C | O=C1NN=C(CCc2ccc([N+](=O)[O-])cc2)C1=Cc1c[nH]c2ccccc12 [Example 240, 4-[(Indol-3-yl)methylene]-3-(4-nitrophenylethyl)-2-pyrazolin-5-one]
2 | 246 to 247 °C | CCCOC1=NNC(=O)C1=Cc1c[nH]c2ccccc12 [Example 241, 4-[(Indol-3-yl)methylene]-3-propoxy-2-pyrazolin-5-one]
3 | 251 to 252 °C | O=C1NN=C(Nc2ccc(F)cc2)C1=Cc1c[nH]c2ccccc12 [Example 242, 3-(4-Fluorophenylamino)4-[(indol-3-yl)methylene]--2-pyrazolin-5-one]
4 | 244 to 246 °C | Nc1ccc(CCC2=NNC(=O)C2=Cc2c[nH]c3ccccc23)cc1 [Example 243, 3-(4-Aminophenylethyl)-4-[(indol-3-yl)methylene]-2-pyrazolin-5-one]
5 | 302 to 304 °C | Cc1cccc2c(C=C3C(=O)NN=C3CCc3ccccc3)c[nH]c12 [Example 246, 4-[(7-Methylindol-3-yl)methylene]-3-phenylethyl-2-pyrazolin-5-one]
6 | 259 to 260 °C | COC(=O)c1ccc(CCC2=NNC(=O)C2=Cc2c[nH]c3ccccc23)cc1 [Example 249, 4-[(Indol-3-yl)methylene]-3-(4-methoxycarbonylphenylethyl)-2-pyrazolin-5-one]
7 | 264 to 266 °C | CC(C)C1=NNC(=O)C1=Cc1c[nH]c2ccccc12 [Example 252, 3-Isopropyl-4-[(indol-3-yl)methylene]-2-pyrazolin-5-one]
8 | 305 to 307 °C | O=C(CC1=NNC(=O)C1=Cc1c[nH]c2ccccc12)Nc1ccc(Cl)cc1 [Example 253, 3-(4-Chlorophenylaminocarbonylmethyl)-4-[(indol-3-yl)methylene]-2-pyrazolin-5-one]
9 | > 300 °C | COc1ccc(NC(=O)CC2=NNC(=O)C2=Cc2c[nH]c3ccccc23)cc1 [Example 255, 4-[(Indol-3-yl)methylene]-3-(4-methoxyphenylaminocarbonylmethyl)-2-pyrazolin-5-one]
10 | 300 to 305 °C | O=C1NN=C(C2CC2)C1=Cc1c[nH]c2ccccc12 [Example 256, 3-Cyclopropyl-4-[(indol-3-yl)methylene]-2-pyrazolin-5-one]
11 | 280 to 281 °C | NC(=O)CCC1=NNC(=O)C1=Cc1c[nH]c2ccccc12 [Example 258, 3-(2-Aminocarbonylethyl)-4-[(indol-3-yl)methylene]-2-pyrazolin-5-one]
12 | > 300 °C | O=C1NN=C(C2CCC2)C1=Cc1c[nH]c2ccccc12 [Example 259, 3-Cyclobutyl-4-[(indol-3-yl)methylene]-2-pyrazolin-5-one]
13 | > 300 °C | O=C1NN=C(c2ccncc2)C1=Cc1c[nH]c2ccccc12 [Example 262, 4-[(Indol-3-yl)methylene]-3-(4-pyridyl)-2-pyrazolin-5-one]
14 | 294 to 296 °C | CC1CC1C1=NNC(=O)C1=Cc1c[nH]c2ccccc12 (stereo not drawn) [Example 265, 4-[(Indol-3-yl)methylene]-3-(2-methylcyclopropyl)-2-pyrazolin-5-one]
15 | > 300 °C | O=C1NN=C(c2nc3ccccc3s2)C1=Cc1c[nH]c2ccccc12 [Example 268, 3-(Benzothiazol-2-yl)-4-[(indol-3-yl)methylene]-2-pyrazolin-5-one]
16 | 278 to 280 °C | O=C1NN=C(c2ccccn2)C1=Cc1c[nH]c2ccccc12 [Example 269, 4-[(Indol-3-yl)methylene]-3-(2-pyridyl)-2-pyrazolin-5-one]
17 | 258 to 260 °C | CN(C)C1=NNC(=O)C1=Cc1c[nH]c2ccccc12 [Example 270, 3-Dimethylamino-4-[(indol-3-yl)methylene]-2-pyrazolin-5-one]
18 | 300 to 302 °C | O=C1NN=C(c2ccc[nH]2)C1=Cc1c[nH]c2ccccc12 [Example 271, 4-[(Indol-3-yl)methylene]-3-(pyrrol-2-yl)-2-pyrazolin-5-one]
19 | > 300 °C | COc1ccc2nc(C3=NNC(=O)C3=Cc3c[nH]c4ccccc34)sc2c1 [Example 272, 4-[(Indol-3-yl)methylene]-3-(6-methoxybenzothiazol-2-yl)-2-pyrazolin-5-one]

Further lines, the compound ahead of its results:

Row | SMILES | melting point
20 | O=C1NN=C(CCc2ccccc2)C1=Cc1cn(CCCCO)c2ccccc12 [Example 239, 4-{[1-(4-Hydroxybutyl)indol-3-yl]methylene}-3-phenylethyl-2-pyrazolin-5-one] | 205 to 207 °C
21 | Cc1[nH]c2ccccc2c1C=C1C(=O)NN=C1OC(C)C [Example 244, 3-Isopropoxy-4-[(2-methylindol-3-yl)methylene]-2-pyrazolin-5-one] | 262 to 264 °C
22 | Cc1cccc2c(C=C3C(=O)NN=C3OC(C)C)c[nH]c12 [Example 245, 3-Isopropoxy-4-[(7-methylindol-3-yl)methylene]-2-pyrazolin-5-one] | 254 to 256 °C
23 | O=C1NN=C(C2CCCC2)C1=Cc1c[nH]c2ccccc12 [Example 247, 3-Cyclopentyl-4-[(indol-3-yl)methylene]-2-pyrazolin-5-one] | 277 to 279 °C
24 | CC(C)OC1=NNC(=O)C1=Cc1cn(C)c2ccccc12 [Example 248, 3-Isopropoxy-4-[(1-methylindol-3-yl)methylene]-2-pyrazolin-5-one] | 239 to 240 °C
25 | CC(C)OC1=NNC(=O)C1=Cc1cn(C(C)C)c2ccccc12 [Example 250, 3-Isopropoxy-4-[(1-isopropylindol-3-yl)methylene]-2-pyrazolin-5-one] | 161 to 163 °C
26 | Cn1cc(C=C2C(=O)NN=C2CCc2ccc(O)cc2)c2ccccc21 [Example 251, 3-(4-Hydroxyphenylethyl)-4-[(1-methylindol-3-yl)methylene]-2-pyrazolin-5-one] | 255 to 257 °C
27 | CCOC(=O)CC1=NNC(=O)C1=Cc1c[nH]c2ccccc12 [Example 254, 3-Ethoxycarbonylmethyl-4-[(indol-3-yl)methylene]-2-pyrazolin-5-one] | 235 to 237 °C
28 | CN(C)C(=O)CCC1=NNC(=O)C1=Cc1c[nH]c2ccccc12 [Example 260, 3-(2-Dimethylaminocarbonylethyl)-4-[(indol-3-yl)methylene]-2-pyrazolin-5-one] | 258 to 260 °C
29 | O=C1NN=C(C2CC2)C1=Cc1cn(CCCCO)c2ccccc12 [Example 261, 3-Cyclopropyl-4-{[1-(4-hydroxybutyl)indol-3-yl]methylene}-2-pyrazolin-5-one] | 215 to 216 °C
30 | O=C1NN=C(C2CCCC2)C1=Cc1c[nH]c2ccccc12 [Example 263, 3-Cyclopentyl-4-[(indol-3-yl)methylene]-2-pyrazolin-5-one] | 300 to 304 °C
31 | CC1(C)C(C2=NNC(=O)C2=Cc2c[nH]c3ccccc23)C1(C)C [Example 264, 4-[(Indol-3-yl)methylene]-3-(2,2,3,3-tetramethylcyclopropyl)-2-pyrazolin-5-one] | 296 to 298 °C
32 | O=C1NN=C(C2CCCCC2)C1=Cc1cn(CCCCO)c2ccccc12 [Example 266, 3-Cyclohexyl-4-{[1-(4-hydroxybutyl)indol-3-yl]methylene}-2-pyrazolin-5-one] | 226 to 227 °C
33 | O=C1NN=C(c2ccncc2)C1=Cc1cn(CCCCO)c2ccccc12 [Example 267, 4-{[1-(4-Hydroxybutyl)indol-3-yl]methylene}-3-(4-pyridyl)-2-pyrazolin-5-one] | 224 to 225 °C
